In patent US9346787B2, “Piperidine compound or salt thereof” (TAIHO PHARMACEUTICAL CO., LTD., priority 2012, dated 2016):

Experiments:
[1] = tested on: human uterine cervical cancer cell line (Hela-Luc); assay: Evaluation of the anti-tumor effect (1), Hela-Luc subcutaneous transplant; settings: for BWC (body weight change) / RTV (relative tumor volume): paclitaxel 30 mg/kg i.v. day 1, compound 60 mg/kg orally twice a day on day 2 and day 3; for potentiation of the anti-tumor effect of paclitaxel (in words): combination with paclitaxel versus paclitaxel-only group
Description: The luciferase-introduced human uterine cervical cancer cell line (Hela-Luc) was subcutaneously transplanted into a nude mouse, and when the volume of the grafted tumor reached 100 to 200 mm^3, five mice in one group were grouped into the single drug administration group and combinational administration group by a randomized stratification method so as to achieve a uniform tumor volume in each group (day 1). […] In order to compare the anti-tumor effect brought about by drug administration, setting the tumor volume at the time of grouping at 1, the relative tumor volume (RTV) was determined in accordance with the following formula as a rate of tumor proliferation. RTV=(Tumor volume on the day of measurement of tumor volume)/(Tumor volume at the time of grouping)
Meanwhile, as the index of systemic toxicity caused by drug administration, the body weight change (BWC) was used. BWC (%)=([(Body weight of mouse on the day of body weight measurement)−(Body weight of mouse at the time of grouping)]/(Body weight of mouse at the time of grouping))×100

human aurora B = human aurora B (Homo sapiens (Human), UniProt Q96GD4); assay: Inhibitory activity on aurora B kinase; assay type: biochemical; settings: ATP 40 μM, 60 minutes
Sequence of human aurora B (Q96GD4 whole entry): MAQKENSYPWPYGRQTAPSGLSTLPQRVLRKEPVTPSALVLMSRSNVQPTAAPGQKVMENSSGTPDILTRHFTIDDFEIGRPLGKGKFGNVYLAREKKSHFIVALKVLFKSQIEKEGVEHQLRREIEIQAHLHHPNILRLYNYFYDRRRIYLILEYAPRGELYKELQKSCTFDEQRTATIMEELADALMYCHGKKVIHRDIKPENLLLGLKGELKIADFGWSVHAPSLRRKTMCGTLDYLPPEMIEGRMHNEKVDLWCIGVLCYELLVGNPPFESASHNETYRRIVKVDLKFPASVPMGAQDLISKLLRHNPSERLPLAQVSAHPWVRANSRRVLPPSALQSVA
Sequence of human aurora B (Q9NQS7 803-918 partner): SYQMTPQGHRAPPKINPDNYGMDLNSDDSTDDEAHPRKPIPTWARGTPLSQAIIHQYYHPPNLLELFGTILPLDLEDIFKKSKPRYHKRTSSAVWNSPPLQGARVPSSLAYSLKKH
Description: (§1) The inhibitory activity of a test compound on aurora A and aurora B was measured in accordance with the following method.

human aurora A = human aurora A (Homo sapiens (Human), UniProt O14965); assay: Inhibitory activity on aurora A kinase (IMAP fluorescence polarization); assay type: biochemical
Sequence of human aurora A (O14965 whole entry): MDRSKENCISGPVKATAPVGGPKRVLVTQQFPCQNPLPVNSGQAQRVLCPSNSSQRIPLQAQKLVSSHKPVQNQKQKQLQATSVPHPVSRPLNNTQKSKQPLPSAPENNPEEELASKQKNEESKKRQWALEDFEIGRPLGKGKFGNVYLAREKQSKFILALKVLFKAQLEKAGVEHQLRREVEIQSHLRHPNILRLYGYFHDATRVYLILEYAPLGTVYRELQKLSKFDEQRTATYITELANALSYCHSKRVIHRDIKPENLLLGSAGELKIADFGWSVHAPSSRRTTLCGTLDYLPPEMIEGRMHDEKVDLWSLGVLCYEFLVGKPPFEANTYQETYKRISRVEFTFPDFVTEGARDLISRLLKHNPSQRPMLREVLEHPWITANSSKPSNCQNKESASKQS
Description: as §1
The cDNA encoding human aurora A having a N-term fused histidine tag was inserted into an expression vector and this protein was expressed at a high level in the E. coli BL21-CodonPlus (DE3)-RIL strain. The E. coli were collected and solubilized, and histidine tag-fused human aurora A protein was extracted by adsorption to a nickel chelate column and then eluted with imidazole from the column. The active fraction was desalted with a desalting column, whereby a purified enzyme was obtained.

[2] = Evaluation of oral absorbability (plasma concentration after oral administration); assay type: in vivo; settings: 0.5% HPMC, BALB/cA mouse, plasma 0.5-6 hours
Description: The test compound was suspended or dissolved in 0.5% HPMC and orally administered to a BALB/cA mouse. The blood was drawn from the retro-orbital venous plexus 0.5, 1, 2, 4, and 6 hours after oral administration to obtain plasma. The concentration of the compound in the plasma thus obtained was measured by LCMS and the oral absorbability was evaluated.

[3] = tested on: human uterine cervical cancer cell line (Hela-Luc); assay: Evaluation of the anti-tumor effect (2), Hela-Luc subcutaneous transplant; assay type: in vivo, nude mouse; settings: for BWC (body weight change) / RTV (relative tumor volume): Day 11, paclitaxel 20 mg/kg i.v. day 1; for potentiation of the anti-tumor effect of paclitaxel (in words): combination with paclitaxel versus paclitaxel-only group
[4] = Compound 13 30 mg/kg orally twice a day on day 2 and day 3
[5] = Compound 22 100 mg/kg (single) or 60 mg/kg (combination) orally twice a day on day 2 and day 3

## O=C(c1cccc(Cl)c1F)N1CCC(Cc2cccc(Nc3cc[nH]n3)n2)(c2n[nH]c(=O)o2)CC1 [Comparative Example 1, 5-(1-(3-chloro-2-fluorobenzoyl)-4-((6-(1H-pyrazol-3-ylamino)pyridin-2-yl)methyl)piperidin-4-yl)-1,3,4-oxadiazol-2(3H)-one]
[1]; Day 23
  BWC (body weight change): 11.6%
  RTV (relative tumor volume): 15.23
[1]
  potentiation of the anti-tumor effect of paclitaxel (in words): did not clearly potentiate the anti-tumor effect

## Cc1cc(Nc2nc(CC3(C(=O)O)CCN(C(=O)c4cccc(Cl)c4F)CC3)ccc2C#N)n[nH]1 [Comparative Example 6, 1-(3-chloro-2-fluorobenzoyl)-4-((5-cyano-6-(5-methyl-H-pyrazol-3-ylamino)pyridin-2-yl)methyl)piperidine-4-carboxylic acid]
Human aurora B
  IC50: 320 nM
Human aurora A; ATP 5 μM, 25° C., 50 minutes
  IC50: 220 nM
Human aurora A; compared with aurora B and with MLN8237
  inhibitory activity on aurora A and selectivity for aurora A (in words): did not exhibit either inhibitory activity on aurora A or selectivity for aurora A

## Cc1cc(Nc2nc(CC3(C(=O)O)CCN(C(=O)c4cccc(Cl)c4Cl)CC3)ccc2F)n[nH]1 [Example 1, 1-(2,3-dichlorobenzoyl)-4-((5-fluoro-6-(5-methyl-1H-pyrazol-3-ylamino)pyridin-2-yl)methyl)piperidine-4-carboxylic acid]
[1]; Day 23
  BWC (body weight change): 11.6%
  RTV (relative tumor volume): 10.47
[1]
  potentiation of the anti-tumor effect of paclitaxel (in words): remarkably potentiated
[2]
  oral absorbability (plasma concentration after oral administration): favorable oral absorbability

## COc1ccc(CC2(C(=O)O)CCN(C(=O)c3cccc(Cl)c3F)CC2)nc1Nc1cc(C)[nH]n1 [Example 11, 1-(3-chloro-2-fluorobenzoyl)-4-((5-methoxy-6-(5-methyl-1H-pyrazol-3-ylamino)pyridin-2-yl)methyl)piperidine-4-carboxylic acid]
[2]
  oral absorbability (plasma concentration after oral administration): favorable oral absorbability

## Cc1cc(Nc2nc(CC3(C(=O)O)CCN(C(=O)c4cccc(Cl)c4F)CC3)ccc2Cl)n[nH]1 [Example 12, 1-(3-chloro-2-fluorobenzoyl)-4-((5-chloro-6-(5-methyl-1H-pyrazol-3-ylamino)pyridin-2-yl)methyl)piperidine-4-carboxylic acid]
[2]
  oral absorbability (plasma concentration after oral administration): favorable oral absorbability

## Cc1cc(Nc2nc(CC3(C(=O)O)CCN(C(=O)c4cccc(Cl)c4F)CC3)ccc2F)n[nH]1 [Example 13, 1-(3-chloro-2-fluorobenzoyl)-4-((5-fluoro-6-(5-methyl-1H-pyrazol-3-ylamino)pyridin-2-yl)methyl)piperidine-4-carboxylic acid]
[3]; [4]
  BWC (body weight change): 6.0%
  RTV (relative tumor volume): 6.54
[3]
  potentiation of the anti-tumor effect of paclitaxel (in words): remarkably potentiated
[2]
  oral absorbability (plasma concentration after oral administration): favorable oral absorbability

## Cc1cc(Nc2nc(CC3(C(=O)N4CCC4)CCN(C(=O)c4cccc(Cl)c4F)CC3)ccc2F)n[nH]1 [Example 19, azetidin-1-yl(1-(3-chloro-2-fluorobenzoyl)-4-((5-fluoro-6-(5-methyl-1H-pyrazol-3-ylamino)pyridin-2-yl)methyl)piperidin-4-yl)methanone]
Human aurora B
  IC50: 680 nM

## Cc1cc(Nc2nc(CC3(c4noc(C)n4)CCN(C(=O)c4cccc(Cl)c4F)CC3)ccc2F)n[nH]1 [Example 22, (3-chloro-2-fluorophenyl)(4-((5-fluoro-6-(5-methyl-1H-pyrazol-3-ylamino)pyridin-2-yl)methyl)-4-(5-methyl-1,2,4-oxadiazol-3-yl)piperidin-1-yl)methanone]
[3]; [5]
  BWC (body weight change): 6.9%
  RTV (relative tumor volume): 4.66
[3]
  potentiation of the anti-tumor effect of paclitaxel (in words): remarkably potentiated
[2]
  oral absorbability (plasma concentration after oral administration): favorable oral absorbability

## CC(=O)O[C@H]1C(=O)[C@@]2(C)[C@H]([C@H](OC(=O)c3ccccc3)[C@]3(O)C[C@H](OC(=O)[C@H](O)[C@@H](NC(=O)c4ccccc4)c4ccccc4)C(C)=C1C3(C)C)[C@]1(OC(C)=O)CO[C@@H]1C[C@@H]2O [Paclitaxel, paclitaxel]
[3]; [4]
  BWC (body weight change): 5.4%
  RTV (relative tumor volume): 2.90
[3]; [5]
  BWC (body weight change): 7.8%
  RTV (relative tumor volume): 3.05
[1]; Day 23
  BWC (body weight change): 3.0%
  RTV (relative tumor volume): 0.69
[1]; Day 46
  BWC (body weight change): 11.6%
  RTV (relative tumor volume): 5.38
[1]; Day 46, ratio of individuals in which RTV does not exceed 1
  DCR (disease control rate): 40%
